Laboratory results as given in patent US11779014B2, “Adjuvants” (SYNGENTA PARTICIPATIONS AG, priority 2017, dated 2023).

How the values were obtained:
[1] = De-gelling temperature of aqueous surfactant blends by low shear rheology (Bohlin Gemini rheometer, storage modulus vs temperature); type: physicochemical; conditions: for Degelling temperature: Table 18
Procedure: The temperatures at which blends of capped and uncapped surfactants de-gel were determined by standard low shear rheology with a Bohlin™ Gemini rheometer. The storage modulus (G′) at 1 Hz was determined at a strain of 0.001-0.002 in a standard C14 cup and bob geometry over a temperature range of 5-70° C., the exact range depending on the de-gelling point of the sample. Plots of storage modulus versus temperature were constructed and the de-gelling temperature was taken to be the point at which the modulus begins to fall rapidly from its high value in the gelled state (typically ca. 10^5 Pa) down to the final value in the de-gelled state (less than 10 Pa). Blends of surfactants were prepared at from 25 to 40% w/w total surfactant concentration in water. Samples were left in an oven at 55° C. for several days to ensure that the mixtures were homogeneous. Samples were placed in the C14 cup and the samples were de-gelled by raising the temperature in the rheometer, the bob was then inserted and the sample was then cooled at 1° C./min, whilst the storage modulus was regularly recorded during the cooling. Once the final temperature had been reached (i.e. when the sample had gelled), the temperature was then increased again and the modulus again recorded. The de-gelling temperature was determined from the increasing temperature cycle.
Degelling temperatures—the measurements relied on the same method as for ‘Example 1’ but just at 30% w/w total surfactant concentration.
De-gelling temperatures were measured using the same method as in Example 1.
(§1) This example provides de-gelling, cloud point and adjuvancy data for dodecyl 23 ethoxylate with n-hexyl cap and hexadecyl 20 ethoxylate with n-hexyl cap Cloud points were measured as described in example 1 for 1% aqueous solutions of the capped and uncapped surfactants both individually and as blends (see Table 30). Degelling temperatures were also measured as outlined in example 1 for 25, 30, 35 and 40% aqueous solutions of the capped and uncapped surfactants both individually and as blends (see Table 31).
(§2) This example provides de-gelling, cloud point and adjuvancy data for oleyl 20 ethoxylate with n-butyl, n-pentyl or benzyl ether caps end capped oleyl 20 ethoxylate. Cloud points were measured as described in example 1 for 1% aqueous solutions of the capped and uncapped surfactants both individually and as blends. Degelling temperatures were also measured as outlined in example 1 for 25, 30, 35 and 40% aqueous solutions o of the capped and uncapped surfactants both individually and as blends.

[2] = Cloud point measurement (absorbance at 500 nm as a function of temperature); type: physicochemical
Procedure: Consistent with the standard method for measuring the cloud point of surfactants, the cloud point of each of the above blends was measured at a total concentration of 1% w/w in water using a Perkin Elmer spectrophotometer fitted with a PTP6 temperature controller. The absorbance of the solution at 500 nm wavelength was determined as a function of temperature. The cloud point was recorded as the onset of a rapid increase in absorbance as the solution began to cloud.
Cloud point—the measurements relied on the same method as for ‘Example 1’
Cloud points—were measured using the same method as in Example 1.
as §1, §2

[3] = test system: Commelina benghalensis (COMBE); assay: Glasshouse adjuvancy test for nicosulfuron on COMBE; type: in vivo; conditions: 21 DAA
Procedure: (§3) The biological efficacies of blends of an oleyl 20 ethoxylate uncapped surfactant with an oleyl 20 ethoxylate surfactant with an n-hexyl ether cap as adjuvants for the herbicide nicosulfuron were tested in a glasshouse against three weed species sown into standard soil in pots and cultivated under controlled conditions in a glasshouse (24/18° C. day/night; 16 hours light; 65% humidity). Nicosulfuron was added to the spray tank as a standard WG (water dispersible granule) formulation. The plants were sprayed with nicosulfuron at rates of 15 or 60 grams of pesticide per hectare using a laboratory track sprayer which delivered the aqueous spray composition at a rate of 200 litres per hectare, using a flat fan nozzle (Teejet 11002VS) at 2 bar. The adjuvants were added to the spray solution at a total rate of 0.1 or 0.2% w/v in all cases and at extra lower rates for the oleyl 20EO alone and its 1:1 blend with the oleyl 20EO n-hexyl ether to show the dose response to these adjuvants. All spray solutions also contained 10% w/w of iso-propanol. The weed species and their BBCH growth stage at spraying were Chenopodium album (CHEAL; growth stage 15), Digitaria sanguinalis (DIGSA; growth stage 14), and Commelina benghalensis (COMBE; growth stage 14). Each spray test was replicated three times. The test plants were then grown in a glasshouse under controlled conditions (24/18° C. day/night; 16 hours light; 65% humidity) and watered twice a day. The efficacy of the herbicide was assessed visually and expressed as a percentage of the leaf area killed. Samples were assessed at a time period of 21 days following application. The following tables (3-8) show the effect of blends of the two surfactants at a total concentration of 0.2 and 0.1%. In each case the blends were 1:0, 3:1, 1:1, 1:3 and 0:1 w/w of oleyl 20EO:oleyl 20 EO n-hexyl ether.

[4] = test system: Chenopodium album (CHEAL); assay: Glasshouse adjuvancy test for nicosulfuron on CHEAL; type: in vivo
Procedure: as §3
The biological efficacies of blends of oleyl 20 ethoxylate and oleyl 20EO ethoxylate with a benzoate cap as adjuvants for the herbicide nicosulfuron were tested in a glasshouse using the same method as for ‘Example 1’ but against just two weed species and with just 0.2% w/v total adjuvant concentration. The weed species and their BBCH growth stage at spraying HI were Chenopodium album (CHEAL; growth stage 13-15) and Digitaria sanguinalis (DIGSA; growth stage 14-22).
The biological efficacies of 1:1 blends of an oleyl 20 ethoxylate uncapped surfactant with oleyl 20E ethoxylate surfactants with hexanoyl, n-octanoyl or 2-ethyl hexanoyl ester caps as adjuvants for the herbicide nicosulfuron were tested in a glasshouse using the same method as for ‘Example 1’ but against just one weed species and at 0.2% w/v tital adjuvant concentration. The weed species and its BBCH growth stage at spraying was Chenopodium album (CHEAL; growth stage 15).

[5] = total surfactant concentration 25% w/w in water, Table 1
[6] = total surfactant concentration 30% w/w in water, Table 1
[7] = total surfactant concentration 35% w/w in water, Table 1
[8] = total surfactant concentration 40% w/w in water, Table 1
[9] = total concentration 1% w/w in water, Table 2
[10] = nicosulfuron 15 g ai/ha, 0.1% surfactant total concentration
[11] = nicosulfuron 15 g ai/ha, 0.2% surfactant total concentration
[12] = nicosulfuron 60 g ai/ha, 0.1% surfactant total concentration
[13] = nicosulfuron 60 g ai/ha, 0.2% surfactant total concentration
[14] = nicosulfuron 15 g ai/ha, 0.1% total surfactant concentration, 21 days, Table 6
[15] = nicosulfuron 15 g ai/ha, 0.2% total surfactant concentration, 21 days, Table 5
[16] = nicosulfuron 60 g ai/ha, 0.1% total surfactant concentration, 21 days, Table 6
[17] = nicosulfuron 60 g ai/ha, 0.2% total surfactant concentration, 21 days, Table 5

For `CCCCCCCC/C=C\CCCCCCCCOCCOCCOCCOCCOCCOCCOCCOCCOCCOCCOCCOCCOCCOCCOCCOCCOCCOCCOCCOCCO` [Oleyl 20EO, oleyl 20 ethoxylate], the De-gelling temperature ([1]; 30% w/w total surfactant concentration, Table 15) was 42.4 °C, the De-gelling temperature ([1]; 40% w/w, Table 19) was 66.3 °C and the De-gelling temperature [1, 5] was 26.9 °C. The Degelling temperature ([1]; total surfactant concentration 25% w/w) was 26.9 °C, the De-gelling temperature ([1]; total surfactant concentration 25% w/w, Table 35) was 23.3 °C and the De-gelling temperature [1, 6] was 45.2 °C. It also gave a Degelling temperature ([1]; total surfactant concentration 30% w/w) of 45.2 °C, a De-gelling temperature ([1]; total surfactant concentration 30% w/w, Table 35) of 40.9 °C and a De-gelling temperature [1, 7] of 51.3 °C. For the same molecule, the Degelling temperature ([1]; total surfactant concentration 35% w/w) was 51.3 °C, the De-gelling temperature ([1]; total surfactant concentration 35% w/w, Table 35) was 56.7 °C and the De-gelling temperature [1, 8] was 70.6 °C. The Degelling temperature ([1]; total surfactant concentration 40% w/w) was 70.6 °C, the De-gelling temperature ([1]; total surfactant concentration 40% w/w, Table 35) was 63.1 °C and the Cloud point ([2]; 1% aqueous solutions, Table 34) was greater than 90.0 °C. For the same molecule, the Cloud point ([2]; 1%, Table 15) was greater than 95.0 °C, the Cloud point ([2]; 1%, Table 20) was greater than 95.0 °C and the Cloud point [2, 9] was greater than 90 °C. The Mean control [3, 10] was 63.3%, the Mean control [3, 11] was 80% and the Mean control [3, 12] was 63.3%. The Mean control [3, 13] was 72.5%, the Mean control ([4]; dose response, nicosulfuron 15 g ai/ha, adjuvant 0.05%) was 81.7% and the Mean control ([4]; dose response, nicosulfuron 15 g ai/ha, adjuvant 0.1%) was 86.7%. It also gave a Mean control ([4]; dose response, nicosulfuron 15 g ai/ha, adjuvant 0.2%) of 83.3%, a Mean control ([4]; dose response, nicosulfuron 60 g ai/ha, adjuvant 0.05%) of 83.3% and a Mean control ([4]; dose response, nicosulfuron 60 g ai/ha, adjuvant 0.1%) of 80.0%. The Mean control ([4]; dose response, nicosulfuron 60 g ai/ha, adjuvant 0.2%) was 80.0%, the Mean control [4, 14] was 86.7% and the Mean control [4, 15] was 83.3%. It also gave a Mean control ([4]; nicosulfuron 15 g ai/ha, 0.2% w/v total adjuvant, Example 3, growth stage 13-15) of 66.7%, a Mean control ([4]; nicosulfuron 15 g ai/ha, 0.2% w/v total adjuvant, Example 4, growth stage 15) of 76.8% and a Mean control [4, 16] of 80%. It also gave a Mean control [4, 17] of 80%, a Mean control ([4]; nicosulfuron 60 g ai/ha, 0.2% w/v total adjuvant, Example 3, growth stage 13-15) of 68.3% and a Mean control ([4]; nicosulfuron 60 g ai/ha, 0.2% w/v total adjuvant, Example 4, growth stage 15) of 71.7%.
Molecule Oleyl 20EO n-hexyl ether has a De-gelling temperature [1, 5] of 5.0 °C, a De-gelling temperature [1, 6] of 5.0 °C and a De-gelling temperature [1, 7] of 5.0 °C. For the same molecule, the De-gelling temperature [1, 8] was 16.7 °C, the Cloud point [2, 9] was 52.0 °C and the Mean control [3, 10] was 70%. It also gave a Mean control [3, 11] of 80%, a Mean control [3, 12] of 73.3% and a Mean control [3, 13] of 72.5%. For the same molecule, the Mean control [4, 14] was 85%, the Mean control [4, 15] was 81.7% and the Mean control [4, 16] was 85%. The Mean control [4, 17] was 88.3%.
